Target: T1, human PDE5 (Homo sapiens, UniProt O76074)
T1 construct: from tissue; host or cells: platelets from fresh blood of human donors (lysate, 10,000 g supernatant)
Test: Inhibition of the type 5 phosphodiesterase (PDE5) activity, modified SPA test with platelet lysate
Assay type: biochemical
Conditions: PDE5 from human platelet lysate, 0.5 μM cGMP
How it was run: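 SPA-based cGMP hydrolysis, [3H]cGMP tracer in 0.5 μM cGMP, by sonicated human platelet lysate; motapizone (1 μM) and a PDE2 inhibitor (10 nM) block other PDEs. Reaction 15 min at 37 °C after 5 min preincubation, quenched with beads containing IBMX. IC50 from concentration-effect curves.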

Compound | IC50 [nM]
COc1cc(OCC2CC2)c(-c2ncnc3c(C(=O)NC4CCN(C(=O)CO)CC4)c[nH]c23)cc1F [Example 236, 4-(2-Cyclopropylmethoxy-5-fluoro-4-methoxy-phenyl)-5H-pyrrolo[3,2-d]pyrimidine-7-carboxylic acid [1-(2-hydroxy-ethanoyl)-piperidin-4-yl]amide] | 1.66
COc1cc(OCC2CC2)c(-c2ncnc3c(C(=O)N[C@H]4CCCN(C(=O)[C@H](C)O)C4)c[nH]c23)cc1F [Example 239, 4-(2-cyclopropylmethoxy-5-fluoro-4-methoxy-phenyl)-5H-pyrrolo[3,2-d]pyrimidine-7-carboxylic acid [(S)-1-((S)-2-hydroxy-propanoyl)piperidin-3-yl]-amide] | 2.51
COc1cc(OCC2CC2)c(-c2ncnc3c(C(=O)N[C@@H]4CCN(C(=O)CO)C4)c[nH]c23)cc1F [Example 241, 4-(2-Cyclopropylmethoxy-5-fluoro-4-methoxy-phenyl)-5H-pyrrolo[3,2-d]pyrimidine-7-carboxylic acid [(R)-1-(2-hydroxy-acetyl)pyrrolidin-3-yl]-amide] | 1.35
Cc1ccc(OCC2CC2)c(-c2ncnc3c(C(=O)N[C@H]4CC[C@H](NC(=O)CO)CC4)c[nH]c23)c1 [Example 243, trans-4-(2-Cyclopropylmethoxy-5-methyl-phenyl)-5H-pyrrolo[3,2-d]pyrimidine-7-carboxylic acid [4-(2-hydroxy-acetylamino)-cyclohexyl]-amide] | 2.29
Cc1ccc(OCC2CC2)c(-c2ncnc3c(C(=O)N[C@H]4CC[C@H](NC(=O)[C@H](C)O)CC4)c[nH]c23)c1 [Example 244, trans-4-(2-Cyclopropylmethoxy-5-methyl-phenyl)-5H-pyrrolo[3,2-d]pyrimidine-7-carboxylic acid [4-((S)-2-hydroxy-propionylamino)-cyclohexyl]-amide] | 1.95
Cc1ccc(OCC2CC2)c(-c2ncnc3c(C(=O)NC4CCN(C(=O)CO)CC4)c[nH]c23)c1 [Example 246, 4-(2-Cyclopropylmethoxy-5-methyl-phenyl)-5H-pyrrolo[3,2-d]pyrimidine-7-carboxylic acid [1-(2-hydroxy-acetyl)piperidin-4-yl]-amide] | 3.63
Cc1ccc(OCC2CC2)c(-c2ncnc3c(C(=O)NC4CCN(C(=O)[C@H](C)O)CC4)c[nH]c23)c1 [Example 247, 4-(2-Cyclopropylmethoxy-5-methyl-phenyl)-5H-pyrrolo[3,2-d]pyrimidine-7-carboxylic acid [1-((S)-2-hydroxy-propionyl)piperidin-4-yl]-amide] | 2.34
CCOc1ccc2c(c1-c1ncnc3c(C(=O)NC4CCN(C(=O)[C@H](C)O)CC4)c[nH]c13)OCO2 [Example 249, 4-(5-Ethoxy-benzo[1,3]dioxol-4-yl)-5H-pyrrolo[3,2-d]pyrimidine-7-carboxylic acid [1-((S)-2-hydroxy-propionyl)-piperidin-4-yl]-amide] | 2.14
CCOc1ccc2c(c1-c1ncnc3c(C(=O)N[C@@H]4CCN(C(=O)[C@H](C)O)C4)c[nH]c13)OCO2 [Example 250, 4-(5-Ethoxy-benzo[1,3]dioxol-4-yl)-5H-pyrrolo[3,2-d]pyrimidine-7-carboxylic acid [(R)-1-((S)-2-hydroxy-propionyl)-pyrrolidin-3-yl]amide] | 4.79
CCCCOc1ccc2c(c1-c1ncnc3c(C(=O)NC4CCN(C(=O)[C@H](C)O)CC4)c[nH]c13)OCO2 [Example 253, 4-(5-Butoxy-benzo[1,3]dioxol-4-yl)-5H-pyrrolo[3,2-d]pyrimidine-7-carboxylic acid [1-((S)-2-hydroxy-propionyl)-piperidin-4-yl]-amide] | 0.17
CCCCOc1ccc2c(c1-c1ncnc3c(C(=O)N[C@@H]4CCN(C(=O)[C@H](C)O)C4)c[nH]c13)OCO2 [Example 254, 4-(5-Butoxy-benzo[1,3]dioxol-4-yl)-5H-pyrrolo[3,2-d]pyrimidine-7-carboxylic acid [(R)-1-((S)-2-hydroxy-propionyl)-pyrrolidin-3-yl]amide] | 0.589
COCCOc1cc(OC)ccc1-c1ncnc2c(C(=O)N[C@H]3CC[C@H](NC(=O)CO)CC3)c[nH]c12 [Example 255, trans-4-[4-Methoxy-2-(2-methoxy-ethoxy)-phenyl]-5H-pyrrolo[3,2-d]pyrimidine-7-carboxylic acid [4-(2-hydroxy-acetylamino)-cyclohexyl]-amide] | 13.5
COCCOc1cc(OC)ccc1-c1ncnc2c(C(=O)N[C@H]3CC[C@H](NC(=O)[C@H](C)O)CC3)c[nH]c12 [Example 256, trans-4-[4-Methoxy-2-(2-methoxy-ethoxy)-phenyl]-5H-pyrrolo[3,2-d]pyrimidine-7-carboxylic acid [4-((S)-2-hydroxy-propionylamino)-cyclohexyl]-amide] | 12
COCCOc1cc(OC)ccc1-c1ncnc2c(C(=O)N[C@H]3CC[C@H](NC(=O)C4(O)CC4)CC3)c[nH]c12 [Example 257, trans-4-[4-Methoxy-2-(2-methoxy-ethoxy)-phenyl]-5H-pyrrolo[3,2-d]pyrimidine-7-carboxylic acid {-[(1-hydroxy-cyclopropanecarbonyl)-amino]-cyclohexyl}-amide] | 9.33
COCCOc1cc(OC)ccc1-c1ncnc2c(C(=O)N[C@H]3CC[C@@H](NC(=O)C4(O)CC4)CC3)c[nH]c12 [Example 258, cis-4-[4-Methoxy-2-(2-methoxy-ethoxy)-phenyl]-5H-pyrrolo[3,2-d]pyrimidine-7-carboxylic acid {-[(1-hydroxy-cyclopropanecarbonyl)-amino]-cyclohexyl}-amide] | 6.31
COCCOc1cc(OC)ccc1-c1ncnc2c(C(=O)NC3CCN(C(=O)C4(O)CC4)CC3)c[nH]c12 [Example 259, 4-[4-Methoxy-2-(2-methoxy-ethoxy)-phenyl]-5H-pyrrolo[3,2-d]pyrimidine-7-carboxylic acid [1-(1-hydroxy-cyclopropanecarbonyl)-piperidin-4-yl]-amide] | 8.51

The remaining lines, values ahead:

IC50 [nM] | Compound
0.977 | COc1cc(OCC2CC2)c(-c2ncnc3c(C(=O)N[C@H]4CC[C@H](NC(=O)[C@H](C)O)CC4)c[nH]c23)cc1F [Example 234, trans-4-(2-Cyclopropylmethoxy-5-fluoro-4-methoxy-phenyl)-5H-pyrrolo[3,2-d]pyrimidine-7-carboxylic acid [4-((S)-2-hydroxy-propionylamino)-cyclohexyl]-amide]
0.457 | COc1cc(OCC2CC2)c(-c2ncnc3c(C(=O)N[C@H]4CC[C@H](NC(=O)C5(O)CC5)CC4)c[nH]c23)cc1F [Example 235, trans-4-(2-Cyclopropylmethoxy-5-fluoro-4-methoxy-phenyl)-5H-pyrrolo[3,2-d]pyrimidine-7-carboxylic acid {4-[(1-hydroxy-cyclopropanecarbonyl)-amino]-cyclohexyl}-amide]
0.617 | COc1cc(OCC2CC2)c(-c2ncnc3c(C(=O)NC4CCN(C(=O)[C@H](C)O)CC4)c[nH]c23)cc1F [Example 237, 4-(2-Cyclopropylmethoxy-5-fluoro-4-methoxy-phenyl)-5H-pyrrolo[3,2-d]pyrimidine-7-carboxylic acid [1-((S)-2-hydroxy-propanoyl)piperidin-4-yl]-amide]
0.316 | COc1cc(OCC2CC2)c(-c2ncnc3c(C(=O)NC4CCN(C(=O)C5(O)CC5)CC4)c[nH]c23)cc1F [Example 238, 4-(2-Cyclopropylmethoxy-5-fluoro-4-methoxy-phenyl)-5H-pyrrolo[3,2-d]pyrimidine-7-carboxylic acid {1-[1-(1-hydroxy-cyclopropyl)methanoyl]-piperidin-4-yl}-amide]
0.501 | COc1cc(OCC2CC2)c(-c2ncnc3c(C(=O)N[C@@H]4CCCN(C(=O)[C@H](C)O)C4)c[nH]c23)cc1F [Example 240, 4-(2-Cyclopropylmethoxy-5-fluoro-4-methoxy-phenyl)-5H-pyrrolo[3,2-d]pyrimidine-7-carboxylic acid [(R)-1-((S)-2-hydroxy-propanoyl)piperidin-3-yl]-amide]
0.977 | COc1cc(OCC2CC2)c(-c2ncnc3c(C(=O)N[C@@H]4CCN(C(=O)[C@H](C)O)C4)c[nH]c23)cc1F [Example 242, 4-(2-Cyclopropylmethoxy-5-fluoro-4-methoxy-phenyl)-5H-pyrrolo[3,2-d]pyrimidine-7-carboxylic acid [(R)-1-((S)-2-hydroxy-propionyl)pyrrolidin-3-yl]-amide]
1.15 | Cc1ccc(OCC2CC2)c(-c2ncnc3c(C(=O)N[C@H]4CC[C@H](NC(=O)C5(O)CC5)CC4)c[nH]c23)c1 [Example 245, trans-4-(2-Cyclopropylmethoxy-5-methyl-phenyl)-5H-pyrrolo[3,2-d]pyrimidine-7-carboxylic acid {4-[(1-hydroxy-cyclopropanecarbonyl)-amino]-cyclohexyl}-amide]
1.1 | Cc1ccc(OCC2CC2)c(-c2ncnc3c(C(=O)NC4CCN(C(=O)C5(O)CC5)CC4)c[nH]c23)c1 [Example 248, 4-(2-Cyclopropylmethoxy-5-methyl-phenyl)-5H-pyrrolo[3,2-d]pyrimidine-7-carboxylic acid [1-(1-hydroxy-cyclopropanecarbonyl)-piperidin-4-yl]-amide]
0.363 | CCCOc1ccc2c(c1-c1ncnc3c(C(=O)NC4CCN(C(=O)[C@H](C)O)CC4)c[nH]c13)OCO2 [Example 251, 4-(5-Propoxy-benzo[1,3]dioxol-4-yl)-5H-pyrrolo[3,2-d]pyrimidine-7-carboxylic acid [1-((S)-2-hydroxy-propionyl)piperidin-4-yl]-amide]
1.2 | CCCOc1ccc2c(c1-c1ncnc3c(C(=O)N[C@@H]4CCN(C(=O)[C@H](C)O)C4)c[nH]c13)OCO2 [Example 252, 4-(5-Propoxy-benzo[1,3]dioxol-4-yl)-5H-pyrrolo[3,2-d]pyrimidine-7-carboxylic acid [(R)-1-((S)-2-hydroxy-propionyl)-pyrrolidin-3-yl]amide]

— US8445501B2, “Substituted 7-carboxamido-pyrrolo[3,2-d]pyrimidines” (Takeda GmbH, priority 2008, dated 2013)
